“And” between values parts separate entries of the source, which are not always exact repeats. Equal entries are not always repeated. Where two headings read alike, the source gives them in different places.
Experiments:
Dengue virus, type 2 = test system: Dengue virus, type 2; parameters: species or system BALB/c mice; conditions: mouse, in vivo
[1] = test system: IL-1, TNF, IL-1 RA and sTNFr; assay: Serum IL-1, TNF, IL-1RA and sTNFr after Doxycycline injection in uninfected mice (Group 1); type: in vivo, BALB/c mice; conditions: 58 mg/kg i.m. every day for 4 days
[2] = test system: Marburg virus strain Popp; parameters: species or system guinea-pigs; conditions: guinea pig, in vivo; monohydrate
[3] = test system: IL-1, IL-1Ra, TNF and soluble TNF receptor (sTNFR); parameters: species or system BALB/c mice; conditions: mouse, in vivo
[4] = test system: IL-1, TNF, IL-1RA and sTNFr; assay: Serum IL-1, TNF, IL-1RA and sTNFr during treatment of Dengue virus infection (Example 2); type: in vivo, BALB/c mice
[5] = 7 day period without viral infection
[6] = test system: Lassa virus strain Josiah; parameters: species or system BALB/c mice; conditions: mouse, in vivo
[7] = 58 mg/kg i.m. during 17 day period without virus injection
[8] = day 0, 58 mg/kg i.m. daily day 2-5 after infection (Group 3)
[9] = day 0, 58 mg/kg i.m. daily day 3-5 after infection (Group 4)
[10] = day 1, 58 mg/kg i.m. daily day 2-5 after infection (Group 3)
[11] = day 1, 58 mg/kg i.m. daily day 3-5 after infection (Group 4)
[12] = day 2, 58 mg/kg i.m. daily day 2-5 after infection (Group 3)
[13] = day 2, 58 mg/kg i.m. daily day 3-5 after infection (Group 4)
[14] = day 3, 58 mg/kg i.m. daily day 2-5 after infection (Group 3)
[15] = day 3, 58 mg/kg i.m. daily day 3-5 after infection (Group 4)
[16] = day 4, 58 mg/kg i.m. daily day 2-5 after infection (Group 3)
[17] = day 4, 58 mg/kg i.m. daily day 3-5 after infection (Group 4)
[18] = day 5, 58 mg/kg i.m. daily day 2-5 after infection (Group 3)
[19] = day 5, 58 mg/kg i.m. daily day 3-5 after infection (Group 4)

## CC1c2cccc(O)c2C(=O)C2=C(O)C3(O)C(=O)C(C(N)=O)=C(O)C(N(C)C)C3C(O)C21.O (centres unmarked) [Doxycycline, 4-(Dimethylamino)-1,4,4a,5,5a,6,11,12a-octahydro-3,5,10,12,12a-pentahydroxy-6-methyl-1, 11-dioxo-2-naphthacenecarboxamide monohydrate]
Dengue virus, type 2
  Survival/dead: 0/10
  mice dead on 4 day: 4 mice - on 4 day
  mice dead on 5 day: 5 mice - on 5 day
  mice dead on 6 day: 1 mice - on 6 day
  mice dead on day 6: 10 mice on day 6
Dengue virus, type 2; 58 mg/kg, monohydrate
  Survival/dead: 10/0 and 0/10 and 6/4 and 2/4 and 1/3 and 0/1
[1]; day 0, before the injection
  I + II: 0.166
  IL-1: 2.95 pg/mL
  IL-1/IL-IRA (I): 0.098
  IL-IRA: 30 pg/mL
  TNF: 1.17 pg/mL
  TNF/sTNFrl (II): 0.068
  sTNFrl: 17 pg/mL
[1]; day 1 after the injection
  I + II: 0.187
  IL-1: 20.62 pg/mL
  IL-1/IL-IRA (I): 0.115
  IL-IRA: 180 pg/mL
  TNF: 4.68 pg/mL
  TNF/sTNFrl (II): 0.072
  sTNFrl: 85 pg/mL
[1]; day 2 after the injection
  I + II: 0.753
  IL-1: 17.43 pg/mL
  IL-1/IL-IRA (I): 0.291
  IL-IRA: 60 pg/mL
  TNF: 17.55 pg/mL
  TNF/sTNFrl (II): 0.462
  sTNFrl: 38 pg/mL
[1]; day 3 after the injection
  I + II: 0.486
  IL-1: 17.48 pg/mL
  IL-1/IL-IRA (I): 0.219
  IL-IRA: 80 pg/mL
  TNF: 9.36 pg/mL
  TNF/sTNFrl (II): 0.267
  sTNFrl: 35 pg/mL
[1]; day 4 after the injection
  I + II: 0.318
  IL-1: 17.93 pg/mL
  IL-1/IL-IRA (I): 0.102
  IL-IRA: 175 pg/mL
  TNF: 8.19 pg/mL
  TNF/sTNFrl (II): 0.216
  sTNFrl: 38 pg/mL
[2]
  m.t.d. (mean time to death): 7.6 and 8.54 and 7.69
[3]
  increase of the ratio of IL-1/IL-1Ra over the base level: about 5 fold
[4]; [8]
  I + II: 0.151
  IL-1: 2.95 pg/mL
  IL-1/IL-IRA (I): 0.083
  IL-IRA: 30 pg/mL
  TNF: 1.17 pg/mL
  TNF/sTNF (II): 0.068
  sTNFrl: 17 pg/mL
[4]; [9]
  I + II: 0.151
  IL-1: 2.95 pg/mL
  IL-1/IL-IRA (I): 0.083
  IL-IRA: 30 pg/mL
  TNF: 1.17 pg/mL
  TNF/sTNF (II): 0.068
  sTNFrl: 17 pg/mL
[4]; [10]
  I + II: 0.407
  IL-1: 10.6 pg/mL
  IL-1/IL-IRA (I): 0.151
  IL-IRA: 70 pg/mL
  TNF: 8.19 pg/mL
  TNF/sTNF (II): 0.256
  sTNFrl: 32 pg/mL
[4]; [11]
  I + II: 0.407
  IL-1: 10.6 pg/mL
  IL-1/IL-IRA (I): 0.151
  IL-IRA: 70 pg/mL
  TNF: 8.19 pg/mL
  TNF/sTNF (II): 0.256
  sTNFrl: 32 pg/mL
[4]; [12]
  I + II: 0.985
  IL-1: 16.8 pg/mL
  IL-1/IL-IRA (I): 0.258
  IL-IRA: 65 pg/mL
  TNF: 26.9 pg/mL
  TNF/sTNF (II): 0.727
  sTNFrl: 37 pg/mL
[4]; [13]
  I + II: 0.985
  IL-1: 16.8 pg/mL
  IL-1/IL-IRA (I): 0.258
  IL-IRA: 65 pg/mL
  TNF: 26.9 pg/mL
  TNF/sTNF (II): 0.727
  sTNFrl: 37 pg/mL
[4]; [14]
  I + II: 0.643
  IL-1: 17.9 pg/mL
  IL-1/IL-IRA (I): 0.211
  IL-IRA: 85 pg/mL
  TNF: 19.89 pg/mL
  TNF/sTNF (II): 0.432
  sTNFrl: 46 pg/mL
[4]; [15]
  I + II: 1.161
  IL-1: 26.7 pg/mL
  IL-1/IL-IRA (I): 0.381
  IL-IRA: 70 pg/mL
  TNF: 35.1 pg/mL
  TNF/sTNF (II): 0.780
  sTNFrl: 45 pg/mL
[4]; [16]
  I + II: 0.809
  IL-1: 24.18 pg/mL
  IL-1/IL-IRA (I): 0.318
  IL-IRA: 76 pg/mL
  TNF: 24.57 pg/mL
  TNF/sTNF (II): 0.491
  sTNFrl: 50 pg/mL
[4]; [17]
  I + II: 1.375
  IL-1: 30.42 pg/mL
  IL-1/IL-IRA (I): 0.400
  IL-IRA: 76 pg/mL
  TNF: 46.8 pg/mL
  TNF/sTNF (II): 0.975
  sTNFrl: 48 pg/mL
[4]; [18]
  I + II: 4.14
  IL-1: 30.42 pg/mL
  IL-1/IL-IRA (I): 0.390
  IL-IRA: 78 pg/mL
  TNF: 262.5 pg/mL
  TNF/sTNF (II): 3.75
  sTNFrl: 70 pg/mL
[4]; [19]
  I + II: 5.256
  IL-1: 36.6 pg/mL
  IL-1/IL-IRA (I): 0.435
  IL-IRA: 84 pg/mL
  TNF: 337.5 pg/mL
  TNF/sTNF (II): 4.821
  sTNFrl: 70 pg/mL
[5]
  toxicity to control groups: not toxic
[5]; of 20 mice
  death: 0
  survival: 20
[6]
  survival: 70%
[6]; 58 mg/kg
  death: 6
[7]
  toxicity to control groups: not toxic
[7]; of 6 guinea pigs
  survival: 6

— US20030092684A1, “Compositions and methods for treating hemorrhagic virus infections and other disorders” (priority 1999, published 2003)
